Data taken from patent publication US10544120B2, “Biaryl kinase inhibitors” (BRISTOL-MYERS SQUIBB COMPANY, priority 2015, dated 2020).

target: GST-Xa-hAAK1 (Homo sapiens (Human), UniProt Q2M2I8); assay: AAK1 Kinase Assay; assay type: biochemical; settings: bacterially expressed GST-Xa-hAAK1 3.5 nM; ATP 22 μM; fluoresceinated peptide 1.5 μM; 3 hours at room temperature; Caliper LabChip 3000
Protocol: The assays were performed in U-bottom 384-well plates. […] The reactions were initiated by the combination of bacterially expressed, GST-Xa-hAAK1 with substrates and test compounds. The reactions were incubated at room temperature for 3 hours and terminated by adding 60 μl of 35 mM EDTA buffer to each sample. The reactions were analyzed on the Caliper LabChip 3000 (Caliper, Hopkinton, Mass.) by electrophoretic separation of the fluorescent substrate and phosphorylated product. […] Compounds were dissolved at 10 mM in dimethylsulfoxide (DMSO) and evaluated at eleven concentrations. IC50 values were derived by non-linear regression analysis.

GST-Xa-hAAK1, sequence (Q2M2I8 whole entry): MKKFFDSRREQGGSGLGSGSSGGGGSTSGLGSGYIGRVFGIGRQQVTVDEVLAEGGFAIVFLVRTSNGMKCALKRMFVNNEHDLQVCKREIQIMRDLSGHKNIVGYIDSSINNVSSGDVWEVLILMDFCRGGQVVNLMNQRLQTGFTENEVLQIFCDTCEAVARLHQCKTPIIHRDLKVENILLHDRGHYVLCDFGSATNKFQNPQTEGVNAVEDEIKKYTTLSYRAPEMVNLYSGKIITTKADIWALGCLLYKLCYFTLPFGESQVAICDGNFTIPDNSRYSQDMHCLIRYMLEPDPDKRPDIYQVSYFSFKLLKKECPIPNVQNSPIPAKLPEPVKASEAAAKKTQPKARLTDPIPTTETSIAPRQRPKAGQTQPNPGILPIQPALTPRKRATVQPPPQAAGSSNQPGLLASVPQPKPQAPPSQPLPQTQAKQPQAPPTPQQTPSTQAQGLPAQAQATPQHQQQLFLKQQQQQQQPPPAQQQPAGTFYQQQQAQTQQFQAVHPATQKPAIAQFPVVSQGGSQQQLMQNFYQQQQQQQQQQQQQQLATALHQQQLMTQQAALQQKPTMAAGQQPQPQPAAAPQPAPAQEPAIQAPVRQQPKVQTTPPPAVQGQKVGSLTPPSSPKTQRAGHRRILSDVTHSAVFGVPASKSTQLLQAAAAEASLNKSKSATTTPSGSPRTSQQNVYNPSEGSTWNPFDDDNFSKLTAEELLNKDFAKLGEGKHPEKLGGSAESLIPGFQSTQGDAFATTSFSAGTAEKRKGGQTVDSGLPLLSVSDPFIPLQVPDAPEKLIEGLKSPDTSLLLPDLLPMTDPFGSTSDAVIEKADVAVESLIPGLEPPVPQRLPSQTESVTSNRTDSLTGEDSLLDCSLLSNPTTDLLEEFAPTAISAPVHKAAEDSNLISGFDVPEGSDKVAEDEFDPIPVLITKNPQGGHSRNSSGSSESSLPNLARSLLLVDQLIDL

IC50	SMILES
865 nM	Cc1nccc(-c2ccc(OCC(N)(CC(C)C)C(F)(F)F)c(C)n2)n1 (single isomer, unassigned) [Example 359, 1,1,1-trifluoro-4-methyl-2-(((2-methyl-6-(2-methylpyrimidin-4-yl)pyridin-3-yl)oxy)methyl)pentan-2-amine]
1250 nM	Cc1nccc(-c2ccc(OCC(N)(CC(C)C)C(F)(F)F)c(C)n2)n1 (single isomer, unassigned) [Example 360, 1,1,1-trifluoro-4-methyl-2-(((2-methyl-6-(2-methylpyrimidin-4-yl)pyridin-3-yl)oxy)methyl)pentan-2-amine]
254 nM	Cc1cc(-c2cc(C(F)(F)F)c(OCC(C)(N)CC(C)C)cn2)ccn1 (stereo in doubt) [Example 164, (R)-2,4-dimethyl-1-((2′-methyl-4-(trifluoromethyl)-[2,4′-bipyridin]-5-yl)oxy)pentan-2-amine]
950 nM	Cc1nccc(-c2cnc(OC[C@](C)(N)CC(C)C)c(C)c2)n1 [Example 263, (R)-2,4-dimethyl-1-((3-methyl-5-(2-methylpyrimidin-4-yl)pyridin-2-yl)oxy)pentan-2-amine]
11 nM	Cc1nccc(-c2cnc(OC[C@@](C)(N)CC(C)C)c(C)c2)n1 [Example 268, (S)-2,4-dimethyl-1-((3-methyl-5-(2-methylpyrimidin-4-yl)pyridin-2-yl)oxy)pentan-2-amine]
226 nM	COC(=O)Nc1cc(-c2ccc(OCC(N)(CC(C)C)C(F)(F)F)c(C)n2)ccn1 (stereo not shown) [Example 273, methyl 5-(2-amino-4-methyl-2-(trifluoromethyl)pentyloxy)-6-methyl-2,4′-bipyridin-2′-ylcarbamate]
986 nM	Cc1nccc(-c2cnc(OCC(N)(CC(C)C)C(F)(F)F)c(C)c2)n1 (stereo not shown) [Example 274, 1,1,1-trifluoro-4-methyl-2-(((3-methyl-5-(2-methylpyrimidin-4-yl)pyridin-2-yl)oxy)methyl)pentan-2-amine]
1.9 nM	CC(C)C[C@](C)(N)COc1ccc(-c2cc(N)ncn2)cc1C(F)(F)F [Example 278, (S)-6-(4-((2-amino-2,4-dimethylpentyl)oxy)-3-(trifluoromethyl)phenyl) pyrimidin-4-amine]
23 nM	Cc1nccc(-c2ccc(OC[C@@](C)(N)CC(C)C)c(CF)n2)n1 [Example 279]
1.1 nM	COC(=O)Nc1cc(-c2ccc(OC[C@@](C)(N)CC(C)C)c(CF)n2)ccn1 [Example 280, (S)-methyl (5-((2-amino-2,4-dimethylpentyl)oxy)-6-(fluoromethyl)-[2,4′-bipyridin]-2′-yl)carbamate]
1.1 nM	CC(C)C[C@](C)(N)COc1ccc(-c2cc(N)ncn2)cc1Cl [Example 285, (S)-6-(4-((2-amino-2,4-dimethylpentyl)oxy)-3-chlorophenyl)pyrimidin-4-amine]
0.6 nM	Cc1nccc(-c2ccc(OC[C@@](C)(N)CC(C)C)c(C(F)(F)F)c2)n1 [Example 290, (S)-2,4-dimethyl-1-(4-(2-methylpyrimidin-4-yl)-2-(trifluoromethyl)phenoxy)pentan-2-amine]
0.3 nM	CC(C)C[C@](C)(N)COc1ccc(-c2ccnc(N)c2)cc1C(F)(F)F [Example 297, (S)-4-(4-((2-amino-2,4-dimethylpentyl)oxy)-3-(trifluoromethyl)phenyl)pyridin-2-amine]
45 nM	Cc1nccc(-c2cnc(OC[C@@](C)(N)CC(C)C)c(-c3cnco3)c2)n1 [Example 298, (S)-2,4-dimethyl-1-((5-(2-methylpyrimidin-4-yl)-3-(oxazol-5-yl)pyridin-2-yl)oxy)pentan-2-amine]
246 nM	COC(=O)Nc1cc(-c2ccc(OC[C@@](C)(N)CC(C)C)c(C#N)c2)cnn1 [Example 300, (S)-methyl (5-(4-((2-amino-2,4-dimethylpentyl)oxy)-3-cyanophenyl)pyridazin-3-yl)carbamate]
58 nM	COC(=O)Nc1cc(-c2ccc(OC[C@@](C)(N)CC(C)C)c(Cl)c2)cnn1 [Example 301, (S)-methyl (5-(4-((2-amino-2,4-dimethylpentyl)oxy)-3-chlorophenyl)pyridazin-3-yl)carbamate]
298 nM	COC(=O)Nc1nccc(-c2cnc(OC[C@](C)(N)CC(C)C)c(Cl)c2)n1 [Example 304, (R)-methyl(4-(6-((2-amino-2,4-dimethylpentyl)oxy)-5-chloropyridin-3-yl)pyrimidin-2-yl)carbamate]
1 nM	COC(=O)Nc1nccc(-c2ccc(OC[C@@](C)(N)CC(C)C)c(C#N)c2)n1 [Example 305, (S)-methyl (4-(4-((2-amino-2,4-dimethylpentyl)oxy)-3-cyanophenyl)pyrimidin-2-yl)carbamate]
0.6 nM	COC(=O)Nc1nccc(-c2ccc(OC[C@@](C)(N)CC(C)C)c(C(F)(F)F)c2)n1 [Example 306, (S)-methyl(4-(4-((2-amino-2,4-dimethylpentyl)oxy)-3-(trifluoromethyl)phenyl)pyrimidin-2-yl)carbamate]

IC50	SMILES
0.9 nM	COC(=O)Nc1nccc(-c2ccc(OC[C@@](C)(N)CC(C)C)c(Cl)c2)n1 [Example 307, (S)-methyl (4-(4-((2-amino-2,4-dimethylpentyl)oxy)-3-chlorophenyl)pyrimidin-2-yl)carbamate]
12 nM	Cc1cc(-c2ccc(OC[C@@](C)(N)CC(C)C)c(Cl)c2)ncn1 [Example 308, (S)-1-(2-chloro-4-(6-methylpyrimidin-4-yl)phenoxy)-2,4-dimethylpentan-2-amine]
8.5 nM	Cc1cc(-c2ccc(OC[C@@](C)(N)CC(C)C)c(C(F)(F)F)c2)ncn1 [Example 309, (S)-2,4-dimethyl-1-(4-(6-methylpyrimidin-4-yl)-2-(trifluoromethyl)phenoxy)pentan-2-amine]
9.1 nM	COC(=O)Nc1nccc(-c2ccc(OC[C@@](C)(N)CC(C)C)c(F)c2)n1 [Example 310, (S)-methyl (4-(4-((2-amino-2,4-dimethylpentyl)oxy)-3-fluorophenyl)pyrimidin-2-yl)carbamate]
3.9 nM	CC(C)C[C@](C)(N)COc1ccc(-c2ccnc(NC(=O)OC(C)C)n2)cc1C(F)(F)F [Example 311, (S)-isopropyl (4-(4-((2-amino-2,4-dimethylpentyl)oxy)-3-(trifluoromethyl)phenyl)pyrimidin-2-yl)carbamate]
4.9 nM	COC(=O)Nc1nccc(-c2ccc(OC[C@@](C)(N)CC(C)C)c(C)n2)n1 [Example 312, (S)-methyl (4-(5-((2-amino-2,4 dimethylpentyl)oxy)-6-methylpyridin-2-yl)pyrimidin-2-yl)carbamate]
2.4 nM	Cc1nc(-c2ccnc(N)n2)ccc1OC[C@@](C)(N)CC(C)C [Example 313, (S)-4-(5-((2-amino-2,4-dimethylpentyl)oxy)-6-methylpyridin-2-yl)pyrimidin-2-amine]
1.2 nM	CCOC(=O)Nc1nccc(-c2ccc(OC[C@@](C)(N)CC(C)C)c(C(F)(F)F)c2)n1 [Example 314, (S)-ethyl (4-(4-((2-amino-2,4-dimethylpentyl)oxy)-3-(trifluoromethyl)phenyl)pyrimidin-2-yl)carbamate]
1.5 nM	CC(C)C[C@](C)(N)COc1ccc(-c2ccnc(C(F)F)n2)cc1C#N [Example 315, (S)-2-((2-amino-2,4-dimethylpentyl)oxy)-5-(2-(difluoromethyl)pyrimidin-4-yl)benzonitrile]
8.2 nM	COc1nccc(-c2ccc(OC[C@@](C)(N)CC(C)C)c(C(F)(F)F)c2)n1 [Example 316, (S)-1-(4-(2-methoxypyrimidin-4-yl)-2-(trifluoromethyl)phenoxy)-2,4-dimethylpentan-2-amine]
103 nM	CC(C)C[C@](C)(N)COc1ccc(-c2ccnc(O)n2)cc1C(F)(F)F [Example 317, (S)-4-(4-((2-amino-2,4-dimethylpentyl)oxy)-3 (trifluoromethyl)phenyl)pyrimidin-2-ol]
9.7 nM	Cc1cc(-c2cc(C(F)F)c(OC[C@@](C)(N)CC(C)C)cn2)ncn1 [Example 318, (S)-1-((4-(difluoromethyl)-6-(6-methylpyrimidin-4-yl)pyridin-3-yl)oxy)-2,4-dimethylpentan-2-amine]
0.5 nM	CC(C)C[C@](C)(N)COc1ccc(-c2ccnc(C(F)F)n2)nc1C(F)F [Example 319, (S)-1-((2-(difluoromethyl)-6-(2-(difluoromethyl)pyrimidin-4-yl)pyridin-3-yl)oxy)-2,4-dimethylpentan-2-amine]
21 nM	Cc1cc(-c2ccc(OC[C@@](C)(N)CC(C)C)c(CF)n2)ccn1 [Example 320, (S)-1-((6-(fluoromethyl)-2′-methyl-[2,4′-bipyridin]-5-yl)oxy)-2,4-dimethylpentan-2-amine]
0.8 nM	COC(=O)Nc1nccc(-c2ccc(OC[C@@](C)(N)CC(C)C)c(C(F)F)n2)n1 [Example 323, (S)-methyl (4-(5-((2-amino-2,4-dimethylpentyl)oxy)-6-(difluoromethyl)pyridin-2-yl)pyrimidin-2-yl)carbamate]
4.8 nM	CC(C)C[C@](C)(N)COc1ccc(-c2ccnc(CF)c2)nc1CF [Example 324, (S)-1-((2′,6-bis(fluoromethyl)-[2,4′-bipyridin]-5-yl)oxy)-2,4-dimethylpentan-2-amine]
1.8 nM	CC(C)C[C@](C)(N)COc1ccc(-c2ccnc(C(F)F)c2)nc1CF [Example 325, (S)-1-((2′-(difluoromethyl)-6-(fluoromethyl)-[2,4′-bipyridin]-5-yl)oxy)-2,4-dimethylpentan-2-amine]
42 nM	CC(C)CC1(COc2ccc(-c3ccnc(C(F)F)c3)nc2C(F)F)CCN1 (stereo not shown) [Example 326, 2′,6-bis(difluoromethyl)-5-((2-isobutylazetidin-2-yl)methoxy)-2,4′-bipyridine]
